According to ChEMBL document CHEMBL1201862, “PubChem BioAssay data set” (2004):
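The compound was tested at five concentrations on cells cultured in 96-well plates, with a 48-hour exposure period. GI50 is the concentration that inhibits growth by half.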 Calls of active or inactive are those of the source. No stated cut-off is given here; in the data, active = GI50 up to about 1.1 µM and inactive = higher.

Columns and labels:
Test in all cases: NCI tumour cell line growth inhibition, 48 h
BT-549 = tested on: BT-549
NCI/ADR-RES = tested on: NCI/ADR-RES
DU-145 = tested on: DU-145
RXF 393 = tested on: RXF 393
SF-539 = tested on: SF-539
LOX IMVI = tested on: LOX IMVI
Hs-578T = tested on: Hs-578T
HOP-92 = tested on: HOP-92
COLO 205 = tested on: COLO 205
KM-20L2 = tested on: KM-20L2
NCI-H460 = tested on: NCI-H460
786-0 = tested on: 786-0
MCF7 = tested on: MCF7
OVCAR-8 = tested on: OVCAR-8
SK-MEL-28 = tested on: SK-MEL-28
MOLT-4 = tested on: MOLT-4
PC-3 = tested on: PC-3
HCC 2998 = tested on: HCC 2998
NCI-H226 = tested on: NCI-H226
SK-MEL-5 = tested on: SK-MEL-5
SW-620 = tested on: SW-620
SNB-19 = tested on: SNB-19
UACC-257 = tested on: UACC-257
RXF 631 = tested on: RXF 631
SK-OV-3 = tested on: SK-OV-3
IGROV-1 = tested on: IGROV-1
OVCAR-3 = tested on: OVCAR-3
SNB-75 = tested on: SNB-75
HOP-62 = tested on: HOP-62
DLD-1 = tested on: DLD-1
ACHN = tested on: ACHN
M19-MEL = tested on: M19-MEL
A549 = tested on: A549
HT-29 = tested on: HT-29
HOP-18 = tested on: HOP-18
HCT-15 = tested on: HCT-15
M14 = tested on: M14
MDA-MB-231 = tested on: MDA-MB-231
T47D = tested on: T47D
DMS-273 = tested on: DMS-273
SNB-78 = tested on: SNB-78
K562 = tested on: K562
CAKI-1 = tested on: CAKI-1
DMS-114 = tested on: DMS-114
NCI-H522 = tested on: NCI-H522
SK-MEL-2 = tested on: SK-MEL-2
SF-268 = tested on: SF-268
HL-60 = tested on: HL-60
HCT-116 = tested on: HCT-116
SF-295 = tested on: SF-295
U-251 = tested on: U-251
UACC-62 = tested on: UACC-62
OVCAR-5 = tested on: OVCAR-5
KM12 = tested on: KM12
MDA-MB-435 = tested on: MDA-MB-435
CCRF-CEM = tested on: CCRF-CEM
EKVX = tested on: EKVX
TK-10 = tested on: TK-10
OVCAR-4 = tested on: OVCAR-4
NCI-H23 = tested on: NCI-H23
RPMI-8226 = tested on: RPMI-8226
Malme-3M = tested on: Malme-3M
UO-31 = tested on: UO-31
A498 = tested on: A498
LXFL 529 = tested on: LXFL 529
SN12C = tested on: SN12C
SR = tested on: SR
XF498 = tested on: XF498

COC1=C(C)C(=O)C2=C(C1=O)C1C3CC4=C(C(=O)C(OC)=C(C)C4=O)C(CNC(=O)C(C)=O)N3C(C#N)C(C2)N1C (stereo not given)
GI50 (BT-549): < 0.001 µM (active)
GI50 (NCI/ADR-RES): 0.296 µM (active)
GI50 (DU-145): 0.00545 µM (active)
GI50 (RXF 393): 0.00496 µM (active)
GI50 (SF-539): 0.00891 µM (active)
GI50 (LOX IMVI): 0.00129 µM (active)
GI50 (Hs-578T): < 0.001 µM (active)
GI50 (HOP-92): 0.00442 µM (active)
GI50 (COLO 205): 0.00274 µM (active)
GI50 (KM-20L2): 0.0149 µM (active)
GI50 (NCI-H460): 0.0101 µM (active)
GI50 (786-0): 0.00383 µM (active)
GI50 (MCF7): 0.01 µM (active)
GI50 (OVCAR-8): 0.00661 µM (active)
GI50 (SK-MEL-28): 0.00511 µM (active)
GI50 (MOLT-4): 0.00838 µM (active)
GI50 (PC-3): 0.00352 µM (active)
GI50 (HCC 2998): 0.00629 µM (active)
GI50 (NCI-H226): 0.0177 µM (active)
GI50 (SK-MEL-5): 0.00343 µM (active)
GI50 (SW-620): 0.00246 µM (active)
GI50 (SNB-19): 0.00804 µM (active)
GI50 (UACC-257): 0.00464 µM (active)
GI50 (RXF 631): 0.0206 µM (active)
GI50 (SK-OV-3): 0.0741 µM (active)
GI50 (IGROV-1): 0.00424 µM (active)
GI50 (OVCAR-3): 0.00419 µM (active)
GI50 (SNB-75): 0.00519 µM (active)
GI50 (HOP-62): 0.0215 µM (active)
GI50 (DLD-1): 0.00254 µM (active)
GI50 (ACHN): 0.0209 µM (active)
GI50 (M19-MEL): 0.00634 µM (active)
GI50 (A549): 0.182 µM (active)
GI50 (HT-29): 0.00388 µM (active)
GI50 (HOP-18): 0.0553 µM (active)
GI50 (HCT-15): 0.00603 µM
GI50 (M14): 0.00417 µM (active)
GI50 (MDA-MB-231): 0.00283 µM (active)
GI50 (T47D): < 0.001 µM (active)
GI50 (DMS-273): 0.00432 µM (active)
GI50 (SNB-78): 0.00617 µM (active)
GI50 (K562): 0.00153 µM (active)
GI50 (CAKI-1): 0.00516 µM (active)
GI50 (DMS-114): 0.00162 µM (active)
GI50 (NCI-H522): < 0.001 µM (active)
GI50 (SK-MEL-2): 0.00226 µM (active)
GI50 (SF-268): 0.014 µM (active)
GI50 (HL-60): 0.00328 µM (active)
GI50 (HCT-116): 0.00711 µM (active)
GI50 (SF-295): 0.0202 µM (active)
GI50 (U-251): 0.00811 µM (active)
GI50 (UACC-62): 0.00353 µM (active)
GI50 (OVCAR-5): 0.0172 µM (active)
GI50 (KM12): 0.00789 µM (active)
GI50 (MDA-MB-435): 0.0016 µM (active)
GI50 (CCRF-CEM): 0.00839 µM (active)
GI50 (EKVX): 0.104 µM (active)
GI50 (TK-10): 0.0328 µM (active)
GI50 (OVCAR-4): 0.0405 µM (active)
GI50 (NCI-H23): 0.00385 µM (active)
GI50 (RPMI-8226): 0.0014 µM (active)
GI50 (Malme-3M): 0.00678 µM (active)

N=C(NNS(=O)(=O)c1ccccc1)Oc1ccc(Cl)cc1
GI50 (RXF 393): 11.3 µM (inactive)
GI50 (SF-539): > 100 µM (inactive)
GI50 (LOX IMVI): 48.3 µM (inactive)
GI50 (HOP-92): > 100 µM (inactive)
GI50 (COLO 205): 35.4 µM (inactive)
GI50 (KM-20L2): > 100 µM (inactive)
GI50 (NCI-H460): > 100 µM (inactive)
GI50 (786-0): 44.3 µM (inactive)
GI50 (OVCAR-8): > 100 µM (inactive)
GI50 (SK-MEL-28): > 100 µM (inactive)
GI50 (MOLT-4): 68.5 µM (inactive)
GI50 (HCC 2998): > 100 µM (inactive)
GI50 (NCI-H226): > 100 µM (inactive)
GI50 (SK-MEL-5): > 100 µM (inactive)
GI50 (SW-620): 5.75 µM (inactive)
GI50 (SNB-19): > 100 µM (inactive)
GI50 (UO-31): > 100 µM (inactive)
GI50 (UACC-257): > 100 µM (inactive)
GI50 (SK-OV-3): > 100 µM (inactive)
GI50 (IGROV-1): > 100 µM (inactive)
GI50 (OVCAR-3): 78.5 µM (inactive)
GI50 (SNB-75): > 100 µM (inactive)
GI50 (HOP-62): > 100 µM (inactive)
GI50 (A498): > 100 µM (inactive)
GI50 (DLD-1): 90.2 µM (inactive)
GI50 (ACHN): > 100 µM (inactive)
GI50 (M19-MEL): > 100 µM (inactive)
GI50 (A549): > 100 µM (inactive)
GI50 (HT-29): > 100 µM (inactive)
GI50 (HOP-18): > 100 µM (inactive)
GI50 (HCT-15): 33.1 µM
GI50 (M14): > 100 µM (inactive)
GI50 (LXFL 529): 51.9 µM (inactive)
GI50 (DMS-273): > 100 µM (inactive)
GI50 (SNB-78): > 100 µM (inactive)
GI50 (K562): 24.8 µM (inactive)
GI50 (CAKI-1): > 100 µM (inactive)
GI50 (DMS-114): 69.5 µM (inactive)
GI50 (NCI-H522): > 100 µM (inactive)
GI50 (SK-MEL-2): > 100 µM (inactive)
GI50 (SF-268): > 100 µM (inactive)
GI50 (HL-60): 21.1 µM (inactive)
GI50 (HCT-116): 65.8 µM (inactive)
GI50 (SF-295): > 100 µM (inactive)
GI50 (U-251): 60.3 µM (inactive)
GI50 (UACC-62): 59.8 µM (inactive)
GI50 (OVCAR-5): > 100 µM (inactive)
GI50 (KM12): > 100 µM (inactive)
GI50 (SN12C): > 100 µM (inactive)
GI50 (SR): 43.1 µM (inactive)
GI50 (XF498): > 100 µM (inactive)
GI50 (CCRF-CEM): 38.3 µM (inactive)
GI50 (EKVX): > 100 µM (inactive)
GI50 (TK-10): > 100 µM (inactive)
GI50 (OVCAR-4): > 100 µM (inactive)
GI50 (NCI-H23): > 100 µM (inactive)
GI50 (RPMI-8226): 70.1 µM (inactive)
GI50 (Malme-3M): > 100 µM (inactive)

Cc1c(C(=O)/C=C/c2ccc([N+](=O)[O-])cc2)[n+]([O-])c2ccccc2[n+]1[O-]
GI50 (RXF 393): 29.1 µM (inactive)
GI50 (SF-539): 49.1 µM (inactive)
GI50 (LOX IMVI): 42.3 µM (inactive)
GI50 (HOP-92): 31.8 µM (inactive)
GI50 (COLO 205): > 100 µM (inactive)
GI50 (KM-20L2): > 100 µM (inactive)
GI50 (NCI-H460): 62.2 µM (inactive)
GI50 (786-0): 52.1 µM (inactive)
GI50 (OVCAR-8): 55.3 µM (inactive)
GI50 (SK-MEL-28): > 100 µM (inactive)
GI50 (MOLT-4): 20.7 µM (inactive)
GI50 (HCC 2998): > 100 µM (inactive)
GI50 (NCI-H226): > 100 µM (inactive)
GI50 (SW-620): 67 µM (inactive)
GI50 (SNB-19): > 100 µM (inactive)
GI50 (UO-31): > 100 µM (inactive)
GI50 (UACC-257): > 100 µM (inactive)
GI50 (SK-OV-3): > 100 µM (inactive)
GI50 (IGROV-1): 55.7 µM (inactive)
GI50 (OVCAR-3): 95.7 µM (inactive)
GI50 (SNB-75): 41.4 µM (inactive)
GI50 (HOP-62): > 100 µM (inactive)
GI50 (A498): > 100 µM (inactive)
GI50 (DLD-1): 42.7 µM (inactive)
GI50 (ACHN): > 100 µM (inactive)
GI50 (M19-MEL): > 100 µM (inactive)
GI50 (A549): > 100 µM (inactive)
GI50 (HT-29): 96.6 µM (inactive)
GI50 (HOP-18): > 100 µM (inactive)
GI50 (M14): > 100 µM (inactive)
GI50 (LXFL 529): 29.2 µM (inactive)
GI50 (DMS-273): 57.3 µM (inactive)
GI50 (SNB-78): 65.5 µM (inactive)
GI50 (K562): 27 µM (inactive)
GI50 (CAKI-1): 64.7 µM (inactive)
GI50 (DMS-114): 30.6 µM (inactive)
GI50 (NCI-H522): 20.5 µM (inactive)
GI50 (SF-268): > 100 µM (inactive)
GI50 (HL-60): 0.923 µM (active)
GI50 (HCT-116): 48.4 µM (inactive)
GI50 (SF-295): > 100 µM (inactive)
GI50 (U-251): 92.5 µM (inactive)
GI50 (UACC-62): 41.7 µM (inactive)
GI50 (OVCAR-5): > 100 µM (inactive)
GI50 (KM12): 93.5 µM (inactive)
GI50 (SN12C): > 100 µM (inactive)
GI50 (SR): 43 µM (inactive)
GI50 (XF498): > 100 µM (inactive)
GI50 (CCRF-CEM): 20.9 µM (inactive)
GI50 (EKVX): > 100 µM (inactive)
GI50 (TK-10): > 100 µM (inactive)
GI50 (OVCAR-4): 24.8 µM (inactive)
GI50 (NCI-H23): 28.2 µM (inactive)
GI50 (RPMI-8226): 33.6 µM (inactive)
GI50 (Malme-3M): > 100 µM (inactive)
